Read-outs that look alike come from different tables or passages of the source.

Holding throughout (format): cell-based, mouse
Test [1] has as its system A20R cells. As to the kind of experiment: Proliferation test 1 (cell counting, Eosin staining), A20R cells. As to the method: Every 2nd or 3rd day, the cells were passaged in fresh medium to which the same concentration of A77 1726 was added. After culturing for 5 days, growth of the cells and a low dying-off rate (maximum 30% dead cells) was detectable, so the concentration of A77 1726 was increased stepwise. If the proliferation of the cells stagnated, the concentration of the last passage was used. […] 5×10^5 cells were incubated in 5 ml of Iscove medium in 6-well plates (Greiner) for 48 hours at 37° C. and 10% CO2. One well was set up as a positive reference value: for […]: cells in Iscove medium+100 μM A77 1726 Test substances in various concentrations were pipetted into the cells in the remaining wells. After the incubation time, the cells were resuspended in the well, and 100 μl of cell suspension were taken and diluted in 1% strength Eosin solution (1 g of Eosin yellowish from Riedel de Häen dissolved in 100 ml of sterile isotonic saline solution). The cells were counted in a Neubauer counting chamber and the fraction of dead cells (stained by Eosin) determined. The substance-induced alteration of proliferation was calculated relative to the respective positive control.

The subject of test [2] is A20.2J cells. Kind of test: Proliferation test 2 (3H-thymidine incorporation), A20.2J cells. The procedure: (§1) 4×10^3 cells were pipetted into a volume of 100 μl of Iscove medium in 96-well round-bottom microtiter plates (Nunc). Test substances were applied in twice the concentration starting from the desired test concentration and 100 μl of this solution was pipetted into the cells. The plates were incubated for 48 hours at 37° C. and 10% CO2. The proliferation was determined by radiolabeling the DNA of dividing cells. To do this, after the incubation time 25 μl of ^3H-thymidine (10 μCi/ml; specific activity 29 Ci/mmol; Amersham) was added to each well and the mixture was incubated for a further 16 hours. To evaluate the test, the plates were harvested on glass fiber filters (Pharmacia) by means of a cell harvester (Skatron), unincorporated ^3H-thymidine being collected in separate waste flasks, and only cellular, DNA-bound radioactivity being measured. The filters were heat-sealed in plastic bags and after addition of 10 ml of scintillator (Pharmacia) sealed in counting cassettes for measurement. Measurement was carried out in a beta-counter (beta-plate system 1206 from Wallac). As indicated under Test 1, the alteration in proliferation of the test substances was calculated against the respective positive controls.
(§2) Antiproliferative substances known from the literature were tested at different concentrations (as described in proliferation test 2) for their antiproliferative properties on A20R cells and A20.2J.
(§3) The function of MDR proteins as secretory pumps can be inhibited by calcium channel blockers, which leads to an accumulation of the substance in the cell. Calcium channel blockers known from the literature and also MDR-associated substances were therefore added to both cell lines in order to check whether the resistant line overexpressed MDR proteins.
(§4) The same test mixture was chosen in order to check whether A77 1726 is an MDR-transported molecule. Numbers are % inhibition of proliferation.
In general terms: Uptake of a labelled nucleoside into DNA is a usual measure of proliferation.

For test [3], the system named is A20R cells. As to the kind of experiment: Proliferation test 2 (3H-thymidine incorporation), A20R cells. As to the method: as §1, §2, §3, §4
The test system of test [4] is A20.2J cells. Kind of test: Proliferation test 1 (cell counting, Eosin staining), A20.2J cells. As to the method:
A20.2J is a subline of the mouse B-cell lymphoma A20 (ATCC TIB-208) and described as a fusion line in the ATCC for the cell line LS 102.9 (ATCC HB-97). […] The cells were easy to culture as a nonadherent-growing cell line. 5×10^5 cells were incubated in 5 ml of Iscove medium in 6-well plates (Greiner) for 48 hours at 37° C. and 10% CO2. One well was set up as a positive reference value: for A20.2J: cells in Iscove medium Test substances in various concentrations were pipetted into the cells in the remaining wells. After the incubation time, the cells were resuspended in the well, and 100 μl of cell suspension were taken and diluted in 1% strength Eosin solution (1 g of Eosin yellowish from Riedel de Häen dissolved in 100 ml of sterile isotonic saline solution). The cells were counted in a Neubauer counting chamber and the fraction of dead cells (stained by Eosin) determined. The substance-induced alteration of proliferation was calculated relative to the respective positive control.

In the case of `C/C(O)=C(\C#N)C(=O)Nc1ccc(C(F)(F)F)cc1` [A77 1726], the IC50 was 130 µM with A20R cells [1] (Mus musculus, proliferation test 1, A77 1726 analogs); 2 to 3 µM with A20.2J cells [4] (Mus musculus, A20/2J, proliferation test 1, A77 1726 analogs, read-out: IC50 value of A20.2J); 2 µM in the test on A20.2J cells [4] (Mus musculus, read-out: 50% inhibition of the proliferation of the cells, A20.2J). Further, the “% inhibition of proliferation” value is 16.4% in the test with A20.2J cells [2] (A20.2J + 1.6 μM A77 1726, verapamil 0 nM) and 10.3% in the test on A20R cells [3] (A20R + 62.5 μM A77 1726, verapamil 0 nM). Also, the “transport by MDR proteins” value in the test with A20R cells [3] (A20.2J and A20R cells, with verapamil 0-400 nM) was “not transported by MDR proteins”.

As for `Cc1c(-c2ccc(-c3ccccc3F)cc2)nc2ccc(F)cc2c1C(=O)[O-].[Na+]` [Brequinar Na^+ salt, brequinar], the “cross-resistance of A20R cells (growth behavior) compared with A20.2J” value in the test with A20R cells [1] is on record as “cross-resistance”. For the same compound, the IC50 was 50 to 75 µM in the test on A20R cells [1] (proliferation test 1, brequinar) and 0.2 µM in the test with A20.2J cells [4] (proliferation test 1, brequinar, read-out: IC50 value of A20.2J).

On to `N.N.[Cl][Pt][Cl]` [Cisplatin], for which the “% inhibition of A20.2J” value with A20.2J cells [2] (10 μM) is listed as 44.7%. In addition, the “% inhibition of A20R” value in the test on A20R cells [3] (10 μM) came to 91.1%.

On to `CN(Cc1cnc2nc(N)nc(N)c2n1)c1ccc(C(=O)N[C@@H](CCC(=O)O)C(=O)O)cc1` [Methotrexate], for which the inhibition at 0.15 µM stood at 75.9% in the test with A20.2J cells [2] (Mus musculus, A20/2J; 0.15 μM) and 65.2% with A20R cells [3] (Mus musculus; 0.15 μM).

`COc1c(C)c2c(c(O)c1C/C=C(\C)CCC(=O)O)C(=O)OC2` [Mycophenolic acid]: the inhibition at 0.15 µM was 89.8% in the test with A20.2J cells [2] (Mus musculus, A20/2J; 0.15 μM) and 76.8% in the test with A20R cells [3] (Mus musculus; 0.15 μM).

Turning to `COc1cccc2c1C(=O)c1c(O)c3c(c(O)c1C2=O)C[C@@](O)(C(C)=O)C[C@@H]3O[C@H]1C[C@H](N)[C@H](O)[C@H](C)O1` [daunorubicin], the inhibition at 0.3 µM came to 10.7% in the test on A20.2J cells [2] (Mus musculus, A20/2J, read-out: % inhibition of proliferation) and 6.8% in the test on A20R cells [3] (Mus musculus, read-out: % inhibition of proliferation).

On to `COc1cccc2c1C(=O)c1c(O)c3c(c(O)c1C2=O)C[C@@](O)(C(=O)CO)C[C@@H]3O[C@H]1C[C@H](N)[C@H](O)[C@H](C)O1` [doxorubicin], for which the inhibition at 0.3 µM in the test with A20.2J cells [2] (Mus musculus, A20/2J; read-out: % inhibition of proliferation) is 2.7%; with A20R cells [3] (Mus musculus; read-out: % inhibition of proliferation), 9.1%.

Regarding `Cc1oncc1C(=O)Nc1ccc(C(F)(F)F)cc1` [leflunomide], in the test on A20R cells [1] (A20R versus A20.2J), the “times higher leflunomide concentrations tolerated by A20R than by A20.2J” value was 30-40 times. The values for the ED50 with A20R cells [1] (murine A20.2J cells resistant to high levels of leflunomide) and in the test on A20.2J cells [4] (murine A20.2J cells) were 130 μ and 4 μ, respectively. Also, the EC50 in the test with A20R cells [1] (resistant subline A20R, read-out: ED50 (the source's name)) worked out at 130 µM; in the test with A20.2J cells [4] (original cell line A20.2J, read-out: ED50 (the source's name)), 4 µM.

Turning to Cyclosporin A, the “% inhibition of A20.2J” value in the test with A20.2J cells [2] (0.25 μM) was determined as 69.9%. In addition, the “% inhibition of A20R” value in the test on A20R cells [3] (0.25 μM) was 77.5%.

Values taken from patent US6403299B1, “DEAH-box proteins” (Aventis Research & Technologies GmbH & Co. KG, priority 1995, dated 2002).
